# Measured values taken from ChEMBL document CHEMBL3797055, “Glabridin-chalcone hybrid molecules: drug resistance reversal agent against clinical isolates of methicillin-resistant Staphylococcus aureus” (Medchemcomm, 2016).
# Columns and labels:
# Staphylococcus aureus [1] = assay: Potentiation of norfloxacin-induced antibacterial activity against clinical isolates of methicillin-resistant Staphylococcus aureus P4629 assessed as reduction in norfloxacin MIC by checkerboard assay relative to control; type: functional
# Staphylococcus aureus [2] = assay: Bactericidal activity against clinical isolates of methicillin-resistant Staphylococcus aureus ST2071 assessed as reduction in viability at 0.5 MIC after 24 hrs by time kill kinetic analysis relative to control; type: functional
# Staphylococcus aureus [3] = assay: Potentiation of norfloxacin-induced antibacterial activity against clinical isolates of methicillin-resistant Staphylococcus aureus P4650 assessed as reduction in norfloxacin MIC by checkerboard assay relative to control; type: functional
# Staphylococcus aureus [4] = assay: Potentiation of norfloxacin-induced antibacterial activity against clinical isolates of methicillin-resistant Staphylococcus aureus ST10342 assessed as reduction in norfloxacin MIC by checkerboard assay relative to control; type: functional
# Staphylococcus aureus [5] = assay: Antibacterial activity against clinical isolates of methicillin-resistant Staphylococcus aureus ST2071 by checkerboard assay in presence of norfloxacin; type: functional
# Staphylococcus aureus [6] = assay: Antibacterial activity against clinical isolates of methicillin-resistant Staphylococcus aureus ST2071 by broth microdilution assay; type: functional
# Staphylococcus aureus [7] = assay: Bactericidal activity against clinical isolates of methicillin-resistant Staphylococcus aureus ST2071 assessed as reduction in viability at MIC after 24 hrs by time kill kinetic analysis relative to control; type: functional
# Staphylococcus aureus [8] = assay: Antibacterial activity against clinical isolates of methicillin-resistant Staphylococcus aureus P4629 by broth microdilution assay; type: functional
# Staphylococcus aureus [9] = assay: Antibacterial activity against clinical isolates of methicillin-resistant Staphylococcus aureus P4650 by broth microdilution assay; type: functional
# Staphylococcus aureus [10] = assay: Antibacterial activity against clinical isolates of methicillin-resistant Staphylococcus aureus P4650 by checkerboard assay in presence of norfloxacin; type: functional
# Staphylococcus aureus [11] = assay: Potentiation of norfloxacin-induced antibacterial activity against clinical isolates of methicillin-resistant Staphylococcus aureus ST2071 assessed as reduction in norfloxacin MIC by checkerboard assay relative to control; type: functional
# Staphylococcus aureus [12] = assay: Ratio of MIC for clinical isolates of methicillin-resistant Staphylococcus aureus P4629 to MIC for clinical isolates of methicillin-resistant Staphylococcus aureus P4629 in presence of norfloxacin; type: functional
# Staphylococcus aureus [13] = assay: Antibacterial activity against clinical isolates of methicillin-resistant Staphylococcus aureus ST10342 by broth microdilution assay; type: functional
# Staphylococcus aureus [14] = assay: Potentiation of norfloxacin-induced antibacterial activity against clinical isolates of methicillin-resistant Staphylococcus aureus P4650 assessed as norfloxacin MIC by checkerboard assay; type: functional
# Staphylococcus aureus [15] = assay: Potentiation of norfloxacin-induced antibacterial activity against clinical isolates of methicillin-resistant Staphylococcus aureus ST10760 assessed as reduction in norfloxacin MIC by checkerboard assay relative to control; type: functional
# Staphylococcus aureus [16] = assay: Potentiation of norfloxacin-induced antibacterial activity against clinical isolates of methicillin-resistant Staphylococcus aureus ST2071 assessed as norfloxacin MIC by checkerboard assay; type: functional
# Staphylococcus aureus [17] = assay: Antibacterial activity against clinical isolates of methicillin-resistant Staphylococcus aureus P4423 by broth microdilution assay; type: functional
# Staphylococcus aureus [18] = assay: Potentiation of norfloxacin-induced antibacterial activity against clinical isolates of methicillin-resistant Staphylococcus aureus ST10760 assessed as norfloxacin MIC by checkerboard assay; type: functional
# Staphylococcus aureus [19] = assay: Potentiation of norfloxacin-induced antibacterial activity against clinical isolates of methicillin-resistant Staphylococcus aureus ST10342 assessed as norfloxacin MIC by checkerboard assay; type: functional
# Staphylococcus aureus [20] = assay: Antibacterial activity against clinical isolates of methicillin-resistant Staphylococcus aureus P4629 by checkerboard assay in presence of norfloxacin; type: functional
# Staphylococcus aureus [21] = assay: Antibacterial activity against clinical isolates of methicillin-resistant Staphylococcus aureus ST10760 by broth microdilution assay; type: functional
# Staphylococcus aureus [22] = assay: Potentiation of norfloxacin-induced antibacterial activity against clinical isolates of methicillin-resistant Staphylococcus aureus P4423 assessed as reduction in norfloxacin MIC by checkerboard assay relative to control; type: functional
# Staphylococcus aureus [23] = assay: Potentiation of norfloxacin-induced antibacterial activity against clinical isolates of methicillin-resistant Staphylococcus aureus P4423 assessed as norfloxacin MIC by checkerboard assay; type: functional
# Staphylococcus aureus [24] = assay: Antibacterial activity against clinical isolates of methicillin-resistant Staphylococcus aureus ST10760 by checkerboard assay in presence of norfloxacin; type: functional
# Staphylococcus aureus [25] = assay: Potentiation of norfloxacin-induced antibacterial activity against clinical isolates of methicillin-resistant Staphylococcus aureus P4629 assessed as norfloxacin MIC by checkerboard assay; type: functional
# Staphylococcus aureus [26] = assay: Antibacterial activity against Staphylococcus aureus MTCC 96 by broth microdilution assay; type: functional
# Staphylococcus aureus [27] = assay: Ratio of MIC for clinical isolates of methicillin-resistant Staphylococcus aureus P4650 to MIC for clinical isolates of methicillin-resistant Staphylococcus aureus P4650 in presence of norfloxacin; type: functional
# Staphylococcus aureus [28] = assay: Antibacterial activity against clinical isolates of methicillin-resistant Staphylococcus aureus ST10342 by checkerboard assay in presence of norfloxacin; type: functional
# Staphylococcus aureus [29] = assay: Antibacterial activity against clinical isolates of methicillin-resistant Staphylococcus aureus P4423 by checkerboard assay in presence of norfloxacin; type: functional
# Mus musculus [30] = assay: Toxicity in Swiss mouse infected with Staphylococcus aureus MTCC 96 assessed as mortality at 12.5 to 100 mg/kg, ip qd for 7 days post infection; type: organism-based; conditions: in vivo, 168 h
# Staphylococcus aureus [31] = assay: Antibacterial activity against Staphylococcus aureus MTCC 96 infected in ip dosed Swiss mouse assessed as reduction in bacterial load in kidney administered qd for 7 days post infection measured 24 hrs after last dose by plate counting analysis; type: functional, organism-based
# Staphylococcus aureus [32] = assay: Ratio of MIC for clinical isolates of methicillin-resistant Staphylococcus aureus ST10760 to MIC for clinical isolates of methicillin-resistant Staphylococcus aureus ST10760 in presence of norfloxacin; type: functional
# Staphylococcus aureus [33] = assay: Antibacterial activity against Staphylococcus aureus MTCC 96 infected in ip dosed Swiss mouse assessed as reduction in bacterial load in liver administered qd for 7 days post infection measured 24 hrs after last dose by plate counting analysis; type: functional, organism-based
# Staphylococcus aureus [34] = assay: Ratio of MIC for clinical isolates of methicillin-resistant Staphylococcus aureus P4423 to MIC for clinical isolates of methicillin-resistant Staphylococcus aureus P4423 in presence of norfloxacin; type: functional
# Staphylococcus aureus [35] = assay: Bactericidal activity against clinical isolates of methicillin-resistant Staphylococcus aureus ST2071 assessed as reduction in viability at 0.5 MIC after 24 hrs by time kill kinetic analysis in presence of norfloxacin relative to control; type: functional
# Staphylococcus aureus [36] = assay: Antibacterial activity against Staphylococcus aureus MTCC 96 infected in ip dosed Swiss mouse assessed as reduction in bacterial load in spleen administered qd for 7 days post infection measured 24 hrs after last dose by plate counting analysis; type: functional, organism-based
# Staphylococcus aureus [37] = assay: Antibacterial activity against Staphylococcus aureus MTCC 96 infected in ip dosed Swiss mouse assessed as reduction in bacterial load in blood administered qd for 7 days post infection measured 24 hrs after last dose by plate counting analysis; type: functional, organism-based
# Staphylococcus aureus [38] = assay: Ratio of MIC for clinical isolates of methicillin-resistant Staphylococcus aureus ST10342 to MIC for clinical isolates of methicillin-resistant Staphylococcus aureus ST10342 in presence of norfloxacin; type: functional
# Mus musculus [39] = assay: Toxicity in Swiss mouse infected with Staphylococcus aureus MTCC 96 assessed as morbidity at 12.5 to 100 mg/kg, ip qd for 7 days post infection; type: organism-based; conditions: in vivo, 168 h
# Staphylococcus aureus [40] = assay: Ratio of MIC for clinical isolates of methicillin-resistant Staphylococcus aureus ST2071 to MIC for clinical isolates of methicillin-resistant Staphylococcus aureus ST2071 in presence of norfloxacin; type: functional
# Staphylococcus aureus [41] = assay: Antibacterial activity against Staphylococcus aureus MTCC 96 infected in ip dosed Swiss mouse assessed as reduction in bacterial load in lung administered qd for 7 days post infection measured 24 hrs after last dose by plate counting analysis; type: functional, organism-based
structure (smiles),measurement,setting,value
CC1(C)C=Cc2c(ccc3c2OC[C@@H](c2ccc(O)cc2O)C3)O1 [GLABRIDIN],fold change (FC),Staphylococcus aureus [1],4
same,fold change (FC),Staphylococcus aureus [2],<=1.52
same,fold change (FC),Staphylococcus aureus [3],4
same,fold change (FC),Staphylococcus aureus [4],2
same,fractional inhibitory concentration index (FICI),Staphylococcus aureus [5],0.75
same,MIC,Staphylococcus aureus [6],12.5 µg/mL
same,fold change (FC),Staphylococcus aureus [7],2
same,MIC,Staphylococcus aureus [8],12.5 µg/mL
same,MIC,Staphylococcus aureus [9],12.5 µg/mL
same,fractional inhibitory concentration index (FICI),Staphylococcus aureus [10],0.5
same,fold change (FC),Staphylococcus aureus [11],2
same,Ratio,Staphylococcus aureus [12],4
same,MIC,Staphylococcus aureus [13],12.5 µg/mL
same,MIC,Staphylococcus aureus [14],62.5 µg/mL
same,fold change (FC),Staphylococcus aureus [15],4
same,MIC,Staphylococcus aureus [16],250 µg/mL
same,MIC,Staphylococcus aureus [17],12.5 µg/mL
same,MIC,Staphylococcus aureus [18],125 µg/mL
same,MIC,Staphylococcus aureus [19],125 µg/mL
same,fractional inhibitory concentration index (FICI),Staphylococcus aureus [20],0.5
same,MIC,Staphylococcus aureus [21],12.5 µg/mL
same,fold change (FC),Staphylococcus aureus [22],2
same,MIC,Staphylococcus aureus [23],125 µg/mL
same,fractional inhibitory concentration index (FICI),Staphylococcus aureus [24],0.75
same,MIC,Staphylococcus aureus [25],125 µg/mL
same,MIC,Staphylococcus aureus [26],3.12 µg/mL
same,Ratio,Staphylococcus aureus [27],4
same,fractional inhibitory concentration index (FICI),Staphylococcus aureus [28],1
same,fractional inhibitory concentration index (FICI),Staphylococcus aureus [29],1
COc1cc(OC)c([C@@H]2COc3c(cc(/C=C/C(=O)c4ccco4)c4c3C=CC(C)(C)O4)C2)cc1/C=C/C(=O)c1ccco1,fold change (FC),Staphylococcus aureus [1],16
same,fold change (FC),Staphylococcus aureus [2],<=1.52
same,fold change (FC),Staphylococcus aureus [3],8
same,fold change (FC),Staphylococcus aureus [4],8
same,fractional inhibitory concentration index (FICI),Staphylococcus aureus [5],0.312
same,Activity,Mus musculus [30],Non-toxic
same,Activity,Staphylococcus aureus [31],Dose-dependent effect
same,MIC,Staphylococcus aureus [6],50 µg/mL
same,Ratio,Staphylococcus aureus [32],<=4
same,Activity,Staphylococcus aureus [33],Dose-dependent effect
same,fold change (FC),Staphylococcus aureus [7],2
same,Ratio,Staphylococcus aureus [34],<=4
same,fold change (FC),Staphylococcus aureus [35],<16
same,MIC,Staphylococcus aureus [8],25 µg/mL
same,MIC,Staphylococcus aureus [9],25 µg/mL
same,fractional inhibitory concentration index (FICI),Staphylococcus aureus [10],0.375
same,fold change (FC),Staphylococcus aureus [11],16
same,Ratio,Staphylococcus aureus [12],<=4
same,MIC,Staphylococcus aureus [13],50 µg/mL
same,MIC,Staphylococcus aureus [14],31.2 µg/mL
same,fold change (FC),Staphylococcus aureus [15],8
same,MIC,Staphylococcus aureus [16],31.2 µg/mL
same,MIC,Staphylococcus aureus [17],50 µg/mL
same,Activity,Staphylococcus aureus [36],Dose-dependent effect
same,MIC,Staphylococcus aureus [18],62.5 µg/mL
same,MIC,Staphylococcus aureus [19],31.2 µg/mL
same,fractional inhibitory concentration index (FICI),Staphylococcus aureus [20],0.312
same,MIC,Staphylococcus aureus [21],50 µg/mL
same,fold change (FC),Staphylococcus aureus [22],8
same,Activity,Staphylococcus aureus [37],Dose-dependent effect
same,MIC,Staphylococcus aureus [23],31.2 µg/mL
same,fractional inhibitory concentration index (FICI),Staphylococcus aureus [24],0.375
same,Ratio,Staphylococcus aureus [38],<=4
same,Activity,Mus musculus [39],Non-toxic
same,MIC,Staphylococcus aureus [25],31.2 µg/mL
same,MIC,Staphylococcus aureus [26],25 µg/mL
same,Ratio,Staphylococcus aureus [40],<=4
same,Ratio,Staphylococcus aureus [27],<=4
same,Activity,Staphylococcus aureus [41],Dose-dependent effect
same,fractional inhibitory concentration index (FICI),Staphylococcus aureus [28],0.375
same,fractional inhibitory concentration index (FICI),Staphylococcus aureus [29],0.375
COc1cc(OC)c([C@@H]2COc3c(cc(/C=C/C(=O)c4ccc(OC)c(OC)c4)c4c3C=CC(C)(C)O4)C2)cc1/C=C/C(=O)c1ccc(OC)c(OC)c1,fold change (FC),Staphylococcus aureus [1],4
same,fold change (FC),Staphylococcus aureus [2],<=1.52
same,fold change (FC),Staphylococcus aureus [3],4
same,fold change (FC),Staphylococcus aureus [4],4
same,fractional inhibitory concentration index (FICI),Staphylococcus aureus [5],0.5
same,MIC,Staphylococcus aureus [6],25 µg/mL
same,Ratio,Staphylococcus aureus [32],4
same,fold change (FC),Staphylococcus aureus [7],2
same,Ratio,Staphylococcus aureus [34],4
same,fold change (FC),Staphylococcus aureus [35],<=3
same,MIC,Staphylococcus aureus [8],12.5 µg/mL
same,MIC,Staphylococcus aureus [9],12.5 µg/mL
same,fractional inhibitory concentration index (FICI),Staphylococcus aureus [10],0.75
same,fold change (FC),Staphylococcus aureus [11],4
same,MIC,Staphylococcus aureus [13],12.5 µg/mL
same,MIC,Staphylococcus aureus [14],62.5 µg/mL
same,fold change (FC),Staphylococcus aureus [15],8
same,MIC,Staphylococcus aureus [16],125 µg/mL
same,MIC,Staphylococcus aureus [17],25 µg/mL
same,MIC,Staphylococcus aureus [18],62.5 µg/mL
same,MIC,Staphylococcus aureus [19],62.5 µg/mL
same,fractional inhibitory concentration index (FICI),Staphylococcus aureus [20],0.5
same,MIC,Staphylococcus aureus [21],25 µg/mL
same,fold change (FC),Staphylococcus aureus [22],4
same,MIC,Staphylococcus aureus [23],62.5 µg/mL
same,fractional inhibitory concentration index (FICI),Staphylococcus aureus [24],0.375
same,MIC,Staphylococcus aureus [25],125 µg/mL
same,MIC,Staphylococcus aureus [26],12.5 µg/mL
same,Ratio,Staphylococcus aureus [40],4
same,fractional inhibitory concentration index (FICI),Staphylococcus aureus [28],0.75
same,fractional inhibitory concentration index (FICI),Staphylococcus aureus [29],0.75
